{
  "source": "paper PMC6249242",
  "about": "“Metabolic engineering of Escherichia coli for de novo biosynthesis of vitamin B12” (Nature Communications, 2018)",
  "key": {"BluE": {"target": "T1, BluE (Rhodobacter capsulatus, UniProt D5AV17)", "T1 construct": "gene RCAP_rcc02055", "T1 sequence (D5AV17 entry or part of it)": "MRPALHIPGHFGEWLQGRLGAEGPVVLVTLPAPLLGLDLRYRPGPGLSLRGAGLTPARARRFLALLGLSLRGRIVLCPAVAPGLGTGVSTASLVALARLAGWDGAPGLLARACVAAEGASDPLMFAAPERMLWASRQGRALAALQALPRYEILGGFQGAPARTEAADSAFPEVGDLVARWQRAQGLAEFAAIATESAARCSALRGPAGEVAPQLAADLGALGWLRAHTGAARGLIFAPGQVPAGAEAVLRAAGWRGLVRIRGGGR", "experiment": "crude enzyme kinase assay, LC-MS of L-threonine phosphate; also in vivo HPLC", "format": "biochemical"}, "CobB": {"target": "CobB (Rhodobacter capsulatus, UniProt O68108)", "sequence (O68108 whole entry)": "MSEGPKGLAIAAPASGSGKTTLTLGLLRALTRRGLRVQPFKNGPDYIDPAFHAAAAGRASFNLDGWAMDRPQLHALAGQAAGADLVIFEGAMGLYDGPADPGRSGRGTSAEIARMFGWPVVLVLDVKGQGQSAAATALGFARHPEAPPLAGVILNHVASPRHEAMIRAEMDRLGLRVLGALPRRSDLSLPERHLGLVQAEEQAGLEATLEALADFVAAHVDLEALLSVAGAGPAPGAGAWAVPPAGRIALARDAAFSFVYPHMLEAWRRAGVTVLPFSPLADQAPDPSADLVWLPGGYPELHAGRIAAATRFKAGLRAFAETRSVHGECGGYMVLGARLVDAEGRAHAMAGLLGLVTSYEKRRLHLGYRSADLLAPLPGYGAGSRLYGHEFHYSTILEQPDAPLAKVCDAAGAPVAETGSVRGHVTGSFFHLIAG", "experiment": "in vitro amidation, LC-MS of HBAD", "format": "biochemical"}, "purified protein": {"substrate": "C[C@@H](OP(=O)(O)O)[C@H](N)C(=O)O", "experiment": "purified protein", "conditions": "pH 6.8 PIPES, 37 °C, 500 µM pyridoxal phosphate (standard assay), substrate taken from the assay description"}},
  "data": [
    {"molecule": "C[C@@H](O)[C@H](N)C(=O)O", "note": "[L-threonine]", "values": [
      {"measurement": "crude enzyme kinase assay, LC-MS of L-threonine phosphate; also in vivo HPLC", "setting": "BluE", "result": "crude BluE activity was confirmed via an in vitro assay"}
    ]},
    {"molecule": "C/C1=C2N=C(/C=C3\\N/C(=C(/C)C4=NC(C)(C5N=C1C(C)(CCC(=O)O)C5CC(=O)O)C(C)(CC(=O)O)C4CCC(=O)O)C(C)(CC(=O)O)C3CCC(=O)O)C(C)(C)C/2CCC(=O)O", "note": "(stereo not drawn) [hydrogenobyrinic acid]", "values": [
      {"measurement": "in vitro amidation, LC-MS of HBAD", "setting": "CobB", "result": "it was completely converted to HBAD by CobB enzyme from R. capsulatus in vitro"}
    ]},
    {"molecule": "RcCobC (Rhodobacter capsulatus SB 1003) (protein) MRDHGGNSDAARAQYGGEDWIDLSTGINRQPWPVPDLPAHVWTDLPTATAKAALLDAAAAAFGTPAPGVALAGAQQAIQLIPRLWAPGRARVLGPTYNEHAAALRAAGWQVEEVSTLGALAGADLAVVVNPNNPDGQRHPAAALRALSLQVGRLVVDESFADASPAASVTAKASRRMLVLRSFGKFYGLAGLRLGFVFADAATVAALSEMAGPWPVSGPALEIGRRALLDRNWAMATALRLGAETMRMDALAARAGWRLVGGTALFRTYATPDAAAAQDHLARARIWSRVFPYAADWLRLGLPGNESEWMRLEKALTNEL", "values": [
      {"measurement": "Km", "setting": "purified protein", "result": 1890, "unit": "µM"}
    ]}
  ]
}
